Values after ≈ are worked out from the molar mass of the structure shown.
Key:
MSSA9144 = experiment: MIC, microdilution broth method; assay type: cell-based, Staphylococcus aureus
EMRSA15 = experiment: MIC, microdilution broth method; assay type: cell-based, Staphylococcus aureus
VSE775 = experiment: MIC, microdilution broth method; assay type: cell-based, Enterococcus faecalis; design: MIC, VSE775: unit not given beside the values
extended bacterial panel = experiment: MIC against an extended bacterial panel (Table 15); assay type: cell-based

## Cc1cc(C)nc(N[C@@H]2CCN(c3c(F)cc4c(=O)c(C(=O)O)cn5c4c3OC[C@@H]5C)C2)n1 [KSN-BL7, (S)-10-((R)-3-((4,6-dimethylpyrimidin-2-yl)amino)pyrrolidin-1-yl)-9-fluoro-3-methyl-7-oxo-2,3-dihydro-7H-[1,4]oxazino[2,3,4-ij]quinoline-6-carboxylic acid]
MSSA9144; ESKAPE panel, Gram-positive, in µg/mL
  MIC, MSSA9144: ≤0.0039
MSSA9144; Staphylococcus aureus
  MIC: ≤ 0.0039 mg/L
EMRSA15; EMRSA15 (Table 16, role of the terminal pyrimidine ring), in µg/mL
  MIC, EMRSA15: 0.125-0.25
EMRSA15; ESKAPE panel, Gram-positive
  MIC, EMRSA15: 0.125-
EMRSA15; Staphylococcus aureus
  MIC: 0.125 mg/L (≈ 0.276 µM)
VSE775; ESKAPE panel, Gram-positive
  MIC, VSE775: 0.0625
VSE775; Enterococcus faecalis
  MIC: 0.06 mg/L (≈ 0.132 µM)
Extended bacterial panel; Enterococcus faecalis, ATCC29212, Enterococcus faecalis ATCC 29212
  MIC: 0.25 mg/L (≈ 0.551 µM)
Extended bacterial panel; Enterococcus faecalis, ATCC51299, Enterococcus faecalis ATCC 51299, VanB
  MIC: 0.125 mg/L (≈ 0.276 µM)
Extended bacterial panel; Enterococcus faecalis, ATCC51575, Enterococcus faecalis ATCC 51575, VanB
  MIC: 0.25 mg/L (≈ 0.551 µM)
Extended bacterial panel; Enterococcus faecalis, ATCC700802, Enterococcus faecalis ATCC 700802, VanB
  MIC: 0.125 mg/L (≈ 0.276 µM)
Extended bacterial panel; Enterococcus faecalis, CCUG47775, Enterococcus faecalis CCUG 47775, Van A
  MIC: 0.5 mg/L (≈ 1.1 µM)
Extended bacterial panel; Enterococcus faecium, CCUG59167, Enterococcus faecium TUH44-29, CCUG 59167, Van A
  MIC: 1 mg/L (≈ 2.21 µM)
Extended bacterial panel; Enterococcus gallinarum, ATCC 49608 / GALLINARUM, Enterococcus gallinarum ATCC 49608, VanC
  MIC: 0.25 mg/L (≈ 0.551 µM)
Extended bacterial panel; Staphylococcus aureus, ATCC10390, Staphylococcus aureus ATCC 10390
  MIC: ≤ 0.0312 mg/L
Extended bacterial panel; Staphylococcus aureus, ATCC 13709 / MRSA, Staphylococcus aureus ATCC 13709, MRSA
  MIC: ≤ 0.0312 mg/L
Extended bacterial panel; Staphylococcus aureus, ATCC19636, Staphylococcus aureus Smith, ATCC 19636
  MIC: ≤ 0.0312 mg/L
Extended bacterial panel; Staphylococcus aureus, ATCC27660, Staphylococcus aureus ATCC 27660
  MIC: ≤ 0.0312 mg/L
Extended bacterial panel; Staphylococcus aureus, ATCC29213, Staphylococcus aureus ATCC 29213
  MIC: ≤ 0.0312 mg/L
Extended bacterial panel; Staphylococcus aureus, ATCC29213, Staphylococcus aureus ATCC 29213 with 50% human serum
  MIC: 1 mg/L (≈ 2.21 µM)
Extended bacterial panel; Staphylococcus aureus, ATCC 33591 / MRSA, Staphylococcus aureus ATCC 33591, MRSA
  MIC: ≤ 0.0312 mg/L
Extended bacterial panel; Staphylococcus aureus, ATCC 33592 / MRSA, Staphylococcus aureus ATCC 33592, MRSA
  MIC: ≤ 0.0312 mg/L
Extended bacterial panel; Staphylococcus aureus, ATCC33594, Staphylococcus aureus ATCC 33594
  MIC: ≤ 0.0312 mg/L
Extended bacterial panel; Staphylococcus aureus, ATCC49230, Staphylococcus aureus ATCC 49230
  MIC: ≤ 0.0312 mg/L
Extended bacterial panel; Staphylococcus aureus, ATCC 700699 / MRSA / VISA, Staphylococcus aureus Mu50, ATCC 700699, MRSA/VISA
  MIC: 2 mg/L (≈ 4.41 µM)
Extended bacterial panel; Staphylococcus aureus, BAA-1556 / MRSA / USA300, Staphylococcus aureus FPR3757, BAA-1556, USA300 MRSA
  MIC: 0.5 mg/L (≈ 1.1 µM)
Extended bacterial panel; Staphylococcus aureus, BAA-1707 / MRSA / USA400, Staphylococcus aureus MW2, BAA-1707, USA400 MRSA
  MIC: ≤ 0.0312 mg/L
Extended bacterial panel; Staphylococcus aureus, BAA-1717 / MRSA / USA300, Staphylococcus aureus TCH1516, BAA-1717, USA300 MRSA
  MIC: ≤ 0.0312 mg/L
Extended bacterial panel; Staphylococcus aureus, MRSA / NRS 3 / VISA, Staphylococcus aureus NRS3, MRSA/VISA
  MIC: 0.5 mg/L (≈ 1.1 µM)
Extended bacterial panel; Staphylococcus aureus, MRSA / NRS 17 / VISA, Staphylococcus aureus NRS17, MRSA/VISA
  MIC: 1 mg/L (≈ 2.21 µM)
Extended bacterial panel; Staphylococcus aureus, MRSA / NRS 22 / USA600 / VISA, Staphylococcus aureus NRS22, USA600 MRSA/VISA
  MIC: 4 mg/L (≈ 8.82 µM)
Extended bacterial panel; Staphylococcus aureus, MRSA / NRS 56 / VISA, Staphylococcus aureus NRS56, MRSA/VISA
  MIC: 1 mg/L (≈ 2.21 µM)
Extended bacterial panel; Staphylococcus aureus, MRSA / NRS 71, Staphylococcus aureus NRS71, MRSA
  MIC: 1 mg/L (≈ 2.21 µM)
Extended bacterial panel; Staphylococcus aureus, MRSA / NRS 100, Staphylococcus aureus COL, NRS100, MRSA
  MIC: ≤ 0.0312 mg/L
Extended bacterial panel; Staphylococcus aureus, MRSA / NRS 119, Staphylococcus aureus NRS119, MRSA LZD-NS
  MIC: 1 mg/L (≈ 2.21 µM)
Extended bacterial panel; Staphylococcus aureus, MRSA / NRS 123 / USA400, Staphylococcus aureus NRS123, USA400 MRSA
  MIC: ≤ 0.0312 mg/L
Extended bacterial panel; Staphylococcus aureus, MRSA / NRS 127, Staphylococcus aureus NRS127, MRSA LZD-NS
  MIC: 4 mg/L (≈ 8.82 µM)
Extended bacterial panel; Staphylococcus aureus, MRSA / NRS 269, Staphylococcus aureus NRS269, MRSA TGC-NS
  MIC: 2 mg/L (≈ 4.41 µM)
Extended bacterial panel; Staphylococcus aureus, MRSA / NRS 271, Staphylococcus aureus E-MRSA 15, NRS271, MRSA LZD-NS
  MIC: 0.5 mg/L (≈ 1.1 µM)
Extended bacterial panel; Staphylococcus aureus, MRSA / NRS 382 / USA100, Staphylococcus aureus NRS382, USA100 MRSA
  MIC: 0.5 mg/L (≈ 1.1 µM)
Extended bacterial panel; Staphylococcus aureus, MRSA / NRS 383 / USA200, Staphylococcus aureus NRS383, USA200 MRSA TIG-NS
  MIC: 1 mg/L (≈ 2.21 µM)
Extended bacterial panel; Staphylococcus aureus, MRSA / NRS 384 / USA300, Staphylococcus aureus NRS384, USA300 MRSA
  MIC: ≤ 0.0312 mg/L
Extended bacterial panel; Staphylococcus aureus, MRSA / NRS 385 / USA500, Staphylococcus aureus NRS385, USA500 MRSA
  MIC: 0.5 mg/L (≈ 1.1 µM)
Extended bacterial panel; Staphylococcus aureus, MRSA / NRS 386 / USA700, Staphylococcus aureus NRS386, USA700 MRSA
  MIC: 0.25 mg/L (≈ 0.551 µM)
Extended bacterial panel; Staphylococcus aureus, MRSA / NRS 387 / USA800, Staphylococcus aureus NRS387, USA800 MRSA
  MIC: ≤ 0.0312 mg/L
Extended bacterial panel; Staphylococcus aureus, MRSA / NRS 402 / VISA, Staphylococcus aureus NRS402, MRSA/VISA DAP-NS
  MIC: 1 mg/L (≈ 2.21 µM)
Extended bacterial panel; Staphylococcus aureus, MRSA / NRS 483, Staphylococcus aureus NRS483, USA1000 MRSA
  MIC: ≤ 0.0312 mg/L
Extended bacterial panel; Staphylococcus aureus, MRSA / NRS 484, Staphylococcus aureus NRS484, USA1100 MRSA
  MIC: ≤ 0.0312 mg/L
Extended bacterial panel; Staphylococcus aureus, MRSA / VISA, Staphylococcus aureus FDA-CDC AR-BANK# 0215
  MIC: 16 mg/L (≈ 35.3 µM)
Extended bacterial panel; Staphylococcus aureus, MRSA / VISA, Staphylococcus aureus FDA-CDC AR-BANK# 0216
  MIC: 0.5 mg/L (≈ 1.1 µM)
